Measured values from ChEMBL document CHEMBL5346970, “Targeting EP2 Receptor for Drug Discovery: Strengths, Weaknesses, Opportunities, and Threats (SWOT) Analysis” (J Med Chem, 2023).

Assays:
[1] = system: SK-N-AS; assay: Antitumor activity against human SK-N-AS cells xenografted in athymic nude mouse assessed as reduction in tumor proliferation at 10 mg/kg, ip administered once daily for 18 days by Ki-67 staining based immunohistochemistry analysis relative to control; format: functional; set-up: scale not given: the % may be the effect or the level left; details: time 18 day
[2] = system: SK-N-AS; assay: Antitumor activity against human SK-N-AS cells xenografted in athymic nude mouse assessed as reduction in tumor proliferation at 20 mg/kg, ip administered once daily for 18 days by Ki-67 staining based immunohistochemistry analysis relative to control; format: functional; set-up: scale not given: the % may be the effect or the level left; details: time 18 day
[3] = target: Prostaglandin E2 receptor EP2 subtype (Mus musculus, UniProt Q62053); assay: Antagonist activity at EP2 receptor in C57BL/6 mouse trachea assessed as inhibition of PGE2-induced relaxation in rings of trachea pretreated for 30 mins in presence of carbachol followed by PGE2 relaxation; format: functional, tissue-based
[4] = Terminal half life in Sprague-Dawley rat at 0.1 ml/kg, po; format: ADME; details: in vivo, read-out: beta t1/2 (converted)
[5] = Oral bioavailability in Sprague-Dawley rat at 0.1 ml/kg; format: ADME, organism-based; details: in vivo

Chain of Prostaglandin E2 receptor EP2 subtype (Q62053 whole entry): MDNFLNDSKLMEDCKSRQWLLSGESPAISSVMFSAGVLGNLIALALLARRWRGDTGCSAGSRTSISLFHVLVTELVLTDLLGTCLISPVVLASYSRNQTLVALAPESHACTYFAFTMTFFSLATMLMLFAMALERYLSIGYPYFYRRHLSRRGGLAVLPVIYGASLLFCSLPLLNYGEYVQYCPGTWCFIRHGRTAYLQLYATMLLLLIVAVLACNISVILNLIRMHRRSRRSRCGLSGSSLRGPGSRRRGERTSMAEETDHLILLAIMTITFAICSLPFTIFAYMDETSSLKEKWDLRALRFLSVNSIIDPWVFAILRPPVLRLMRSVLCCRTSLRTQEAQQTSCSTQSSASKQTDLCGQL

| Structure (SMILES) | Activity [1] | Activity [2] | IC50 [3] | half-life [4] | bioavailability [5] |
| --- | --- | --- | --- | --- | --- |
| CCc1nnc(NS(=O)(=O)c2ccc(NC(=S)NC(=O)/C=C/c3ccc(F)cc3)cc2)s1 | 25% | 55% |  |  |  |
| COc1ccc2cc(OCC3(C(=O)O)CN(C(=O)c4ccc(F)cc4)C3)ccc2c1 [PF-04418948] |  |  | 2.7 nM | 8.8 h | 78% |
